Data: patent US20220145264A1, “CULTURE MEDIUM FOR MAMMALIAN EXPANDED POTENTIAL STEM CELLS, COMPOSITION, AND METHODS THEREOF” (THE UNIVERSITY OF HONG KONG, priority 2019, published 2022)

How the values were obtained:
[1] = system: Dox dependent porcine iPSCs; test: Screening for the porcine EPSC culture conditions; assay type: cell-based; details: 1.0 μM, irrespective of whether Dox was present
Method: Dox dependent porcine iPSCs were dissociated in 0.25% trypsin/EDTA solution (Gibco, Cat. No. 25500-054) and seeded in 24-well STO feeder plates at a density of 1×10^4 cells per well. The cells were cultured in M15 supplemented with Dox (Sigma, Cat. No. D9891), Vitamin C (Sigma, Cat. No. 49752-100G) and 10 ng/ml bFGF (SCI) for two days before the culture media was switched to medium supplemented with indicated small molecules and cytokines (Supplementary Table 1). M15 and N2B27 media: see above. AlbumMax media: DMEM/F12 (Gibco, Cat. No. 21331-020), 20% AlbumMax II (Gibco, Cat. No. 11021-037), […] Human Insulin (Sigma, Cat. No. 91077C), 2×B27 Supplement, […] IGFII (R&D, Cat. No. 292-G2-250), 1×Glutamine Penicillin-Streptomycin (Thermo Fisher Scientific, Cat. No. 11140-050), 1×NEAA (Thermo Fisher Scientific, Cat. No. 10378-016) and 0.1 mM 2mercaptoethanol (Sigma, Cat. No. M6250). 20% KSR media: DMEM/F-12 (Gibco, Cat. No. 21331-020), 20% KnockOut Serum Replacement (KSR) (Gibco, Cat. No. 10828-028), 1× glutamine penicillin-streptomycin (Thermo Fisher Scientific, Cat. No. 11140-050), 1×NEAA (Thermo Fisher Scientific, Cat. No. 10378-016) and 0.1 mM 2-mercaptoethanol (Sigma, Cat. No. M6250). […]

[2] = system: human ES cell (hESC) lines (H1, H9, M1, M10); test: Culture of human ES cell lines in pEPSCM minus ACTIVIN A (colony formation); assay type: cell-based; details: removing ACTIVIN A (20 ng/ml) from pEPSCM
Source text: Human ESCs have been widely used in studying human embryo development in vitro and hold great potential for regenerative medicine. The finding that inhibition of SRC and Tankyrases is sufficient to convert mouse ESCs to mEPSCs and that these two inhibitors are required for the generation of pEPSCs raises the possibility that similar in vitro culture conditions may also work for other mammalian species. To explore this possibility, four established human ES cell (hESC) lines (H1, H9, Man1 or M1, and Man10 or M10 cells) are cultured in pEPSCM and passaged them up to three times. […] Removing ACTIVIN A (20 ng/ml) from pEPSCM led to considerably fewer cell colonies formed from H1 (<1.0%) and M1 (5.0%) ESC cultures, while none from H9 or M10 (Extended Data FIG. 7a), which is consistent with the inherent between-line heterogeneity of human ESCs. With further refinement of the culture conditions (for example, replacing WH-4-023 with another SRC inhibitor A419259 in hEPSCM, see Methods), morphologically homogenous and stable cell lines were established from single-cell sub-cloned H1 (H1-EPSCs) and M1 cells (M1-EPSCs) (FIG. 3a).

O=C(NOC[C@H](O)CO)c1ccc(F)c(F)c1Nc1ccc(I)cc1F [PD0325901]
survival of porcine iPSCs / porcine cells in the screens [1]: deleterious to porcine cells | survival of porcine iPSCs / porcine cells in the screens ([1]; listed as PD-0325901): rapidly lost

ACTIVIN A: Human Recombinant ACTIVIN A cytokine
cell colonies formed ([2]; H1 ESC culture): < 1.0% | cell colonies formed ([2]; H9): none | cell colonies formed ([2]; M1 ESC culture): 5.0% | cell colonies formed ([2]; M10): none
